Reference: PubChem BioAssay (NCI)
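GI50 = concentration required for 50% inhibition of growth. TGI: total growth inhibition.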

What was measured:
Experiment in all cases: growth of human tumour cells (NCI), 384-well format
NCI-H226 lung = test system: NCI-H226 lung
U251 glioblastoma = test system: U251 glioblastoma
786-0 renal = test system: 786-0 renal
ACHN renal = test system: ACHN renal
SNB-19 CNS = test system: SNB-19 CNS
UO-31 renal = test system: UO-31 renal
MDA-MB-468 breast = test system: MDA-MB-468 breast
SNB-75 CNS = test system: SNB-75 CNS
MALME-3M melanoma = test system: MALME-3M melanoma
HCT-15 colon = test system: HCT-15 colon
BT-549 breast = test system: BT-549 breast
SN12C renal = test system: SN12C renal
T-47D breast = test system: T-47D breast
UACC-62 melanoma = test system: UACC-62 melanoma
CCRF-CEM leukemia = test system: CCRF-CEM leukemia
SF-539 CNS = test system: SF-539 CNS
SK-MEL-5 melanoma = test system: SK-MEL-5 melanoma
OVCAR-3 ovarian = test system: OVCAR-3 ovarian
OVCAR-8 ovarian = test system: OVCAR-8 ovarian
HT29 colon = test system: HT29 colon
SK-MEL-28 melanoma = test system: SK-MEL-28 melanoma
NCI-H23 lung = test system: NCI-H23 lung
SF-295 CNS = test system: SF-295 CNS
HCC-2998 colon = test system: HCC-2998 colon
HOP-92 NSCLC = test system: HOP-92 NSCLC
COLO 205 colon = test system: COLO 205 colon
HS 578T breast = test system: HS 578T breast
EKVX NSCLC = test system: EKVX NSCLC
OVCAR-4 ovarian = test system: OVCAR-4 ovarian
DU-145 prostate = test system: DU-145 prostate
SR leukemia = test system: SR leukemia
MCF7 breast = test system: MCF7 breast
NCI-H522 lung = test system: NCI-H522 lung
KM12 colon = test system: KM12 colon
SF-268 CNS = test system: SF-268 CNS
SW-620 colon = test system: SW-620 colon
UACC-257 melanoma = test system: UACC-257 melanoma
OVCAR-5 ovarian = test system: OVCAR-5 ovarian
SK-OV-3 ovarian = test system: SK-OV-3 ovarian
M14 melanoma = test system: M14 melanoma
HOP-62 NSCLC = test system: HOP-62 NSCLC
IGROV1 ovarian = test system: IGROV1 ovarian
MDA-MB-231 breast = test system: MDA-MB-231 breast
NCI-H322M lung = test system: NCI-H322M lung
RPMI-8226 leukemia = test system: RPMI-8226 leukemia
RXF 393 renal = test system: RXF 393 renal
LOX IMVI melanoma = test system: LOX IMVI melanoma
NCI-H460 NSCLC = test system: NCI-H460 NSCLC
A549 NSCLC = test system: A549 NSCLC
NCI/ADR-RES ovarian = test system: NCI/ADR-RES ovarian
CAKI-1 renal = test system: CAKI-1 renal
MOLT-4 leukemia = test system: MOLT-4 leukemia
K-562 leukemia = test system: K-562 leukemia
HL-60(TB) leukemia = test system: HL-60(TB) leukemia
A498 renal = test system: A498 renal

NS(=O)(=O)OC[C@@H]1C[C@@H](n2ccc3c(NC4CCc5ccccc54)ncnc32)C[C@@H]1O (stereo not given in full)
GI50 (NCI-H226 lung): 112 nM | TGI (NCI-H226 lung): 804 nM | GI50 (U251 glioblastoma): 254 nM | TGI (U251 glioblastoma): 12500 nM | GI50 ([…]-0 renal): 226 nM | TGI (786-0 renal): 1130 nM | GI50 (ACHN renal): 227 nM | TGI (ACHN renal): 735 nM | GI50 (SNB-19 CNS): 372 nM | TGI (SNB-19 CNS): 28500 nM | GI50 (UO-31 renal): 3180 nM | TGI (UO-31 renal): > 100000 nM | GI50 (MDA-MB-468 breast): 13.5 nM | TGI (MDA-MB-468 breast): 64.9 nM | GI50 (SNB-75 CNS): 178 nM | TGI (SNB-75 CNS): 627 nM | GI50 (MALME-3M melanoma): 202 nM | TGI (MALME-3M melanoma): 766 nM | GI50 (HCT-15 colon): 277 nM | TGI (HCT-15 colon): 11200 nM | GI50 (BT-549 breast): 56.7 nM | TGI (BT-549 breast): 491 nM | GI50 (SN12C renal): 370 nM | TGI (SN12C renal): 4360 nM | GI50 (T-47D breast): 142 nM | TGI (T-47D breast): 15800 nM | GI50 (UACC-62 melanoma): 20.2 nM | TGI (UACC-62 melanoma): 137 nM | GI50 (CCRF-CEM leukemia): 24.6 nM | TGI (CCRF-CEM leukemia): 126 nM | GI50 (SF-539 CNS): 85.3 nM | TGI (SF-539 CNS): 260 nM | GI50 (SK-MEL-5 melanoma): 34.3 nM | TGI (SK-MEL-5 melanoma): 223 nM | GI50 (OVCAR-3 ovarian): 43.2 nM | TGI (OVCAR-3 ovarian): 3550 nM | GI50 (OVCAR-8 ovarian): 119 nM | TGI (OVCAR-8 ovarian): 316 nM | GI50 (HT29 colon): 256 nM | TGI (HT29 colon): 11600 nM | GI50 (SK-MEL-28 melanoma): 163 nM | TGI (SK-MEL-28 melanoma): 1880 nM | GI50 (NCI-H23 lung): 212 nM | TGI (NCI-H23 lung): 1380 nM | GI50 (SF-295 CNS): 176 nM | TGI (SF-295 CNS): 333 nM | GI50 (HCC-2998 colon): 434 nM | TGI (HCC-2998 colon): 5530 nM | GI50 (HOP-92 NSCLC): 439 nM | TGI (HOP-92 NSCLC): 18800 nM | GI50 (COLO 205 colon): 40.6 nM | TGI (COLO 205 colon): 292 nM | GI50 (HS 578T breast): 186 nM | TGI (HS 578T breast): 13200 nM | GI50 (EKVX NSCLC): 2430 nM | TGI (EKVX NSCLC): > 100000 nM | GI50 (OVCAR-4 ovarian): 210 nM | TGI (OVCAR-4 ovarian): 799 nM | GI50 (DU-145 prostate): 68.6 nM | TGI (DU-145 prostate): 14000 nM | GI50 (SR leukemia): 24.3 nM | TGI (SR leukemia): 79.1 nM | GI50 (MCF7 breast): 32.9 nM | TGI (MCF7 breast): 424 nM | GI50 (NCI-H522 lung): 42.8 nM | TGI (NCI-H522 lung): 844 nM | GI50 (KM12 colon): 255 nM | TGI (KM12 colon): 4950 nM | GI50 (SF-268 CNS): 238 nM | TGI (SF-268 CNS): 4970 nM | GI50 (SW-620 colon): 602 nM | TGI (SW-620 colon): 15700 nM | GI50 (UACC-257 melanoma): 162 nM | TGI (UACC-257 melanoma): 10500 nM | GI50 (OVCAR-5 ovarian): 554 nM | TGI (OVCAR-5 ovarian): 13600 nM | GI50 (SK-OV-3 ovarian): 206 nM | TGI (SK-OV-3 ovarian): 703 nM | GI50 (M14 melanoma): 151 nM | TGI (M14 melanoma): 1050 nM | GI50 (HOP-62 NSCLC): 114 nM | TGI (HOP-62 NSCLC): 372 nM | GI50 (IGROV1 ovarian): 257 nM | TGI (IGROV1 ovarian): 4400 nM | GI50 (MDA-MB-231 breast): 216 nM | TGI (MDA-MB-231 breast): 2730 nM | GI50 (NCI-H322M lung): 333 nM | TGI (NCI-H322M lung): 11100 nM | GI50 (RPMI-8226 leukemia): 126 nM | TGI (RPMI-8226 leukemia): 1560 nM | GI50 (RXF 393 renal): 60.1 nM | TGI (RXF 393 renal): 304 nM | GI50 (LOX IMVI melanoma): 39.9 nM | TGI (LOX IMVI melanoma): 168 nM | GI50 (NCI-H460 NSCLC): 274 nM | TGI (NCI-H460 NSCLC): 958 nM | GI50 (A549 NSCLC): 405 nM | TGI (A549 NSCLC): 13800 nM | GI50 (NCI/ADR-RES ovarian): 1520 nM | TGI (NCI/ADR-RES ovarian): 11300 nM | GI50 (CAKI-1 renal): 76.4 nM | TGI (CAKI-1 renal): > 100000 nM | GI50 (MOLT-4 leukemia): 29 nM | TGI (MOLT-4 leukemia): 117 nM | GI50 (K-562 leukemia): 62.7 nM | TGI (K-562 leukemia): 10900 nM | GI50 (HL-60(TB) leukemia): 10.9 nM | TGI (HL-60(TB) leukemia): 26.6 nM | GI50 (A498 renal): 43.8 nM | TGI (A498 renal): 10400 nM
